Data: PubChem BioAssay (NCI)
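1) Cells in 96-well plates. 2) Compound, 48 h, 5 concentrations. 3) Linear interpolation between surrounding doses. 4) Unreached endpoint = highest concentration. At the GI50, growth is halved. The concentration for full growth arrest is given as TGI.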

Legend:
Assay in all cases: DTP human tumour cell line panel, 48 h
HCC-2998 colon = tested on: HCC-2998 colon
UACC-62 melanoma = tested on: UACC-62 melanoma
CAKI-1 renal = tested on: CAKI-1 renal
CCRF-CEM leukemia = tested on: CCRF-CEM leukemia
DU-145 prostate = tested on: DU-145 prostate
RPMI-8226 leukemia = tested on: RPMI-8226 leukemia
HT29 colon = tested on: HT29 colon
HL-60(TB) leukemia = tested on: HL-60(TB) leukemia

O=C(Nc1ccc(Cl)cc1F)c1cc(F)ccc1O
GI50 (HCC-2998 colon): 2.64 µM | TGI (HCC-2998 colon): 8.1 µM | GI50 (UACC-62 melanoma): 0.289 µM | TGI (UACC-62 melanoma): 1.15 µM | GI50 (CAKI-1 renal): 0.588 µM | TGI (CAKI-1 renal): 4.54 µM | GI50 (CCRF-CEM leukemia): 3.16 µM | TGI (CCRF-CEM leukemia): > 100 µM | GI50 (DU-145 prostate): 1.24 µM | TGI (DU-145 prostate): > 46.3 µM | GI50 (RPMI-8226 leukemia): 0.449 µM | TGI (RPMI-8226 leukemia): 3.99 µM | GI50 (HT29 colon): 3.24 µM | TGI (HT29 colon): > 34 µM | GI50 (HL-60(TB) leukemia): 0.622 µM | TGI (HL-60(TB) leukemia): 3.45 µM

CCN1/C(=C/C=C/C=C/c2sc3ccccc3[n+]2CC)Sc2ccccc21
GI50 (HCC-2998 colon): 0.381 µM | TGI (HCC-2998 colon): 1.69 µM | GI50 (UACC-62 melanoma): 0.512 µM | TGI (UACC-62 melanoma): 1.88 µM | GI50 (CAKI-1 renal): 0.376 µM | TGI (CAKI-1 renal): 2.29 µM | GI50 (CCRF-CEM leukemia): 0.353 µM | TGI (CCRF-CEM leukemia): > 21.8 µM | GI50 (DU-145 prostate): 0.394 µM | TGI (DU-145 prostate): 1.73 µM | GI50 (RPMI-8226 leukemia): 0.149 µM | TGI (RPMI-8226 leukemia): 2.21 µM | GI50 (HT29 colon): 0.23 µM | TGI (HT29 colon): 1.2 µM | GI50 (HL-60(TB) leukemia): 0.143 µM | TGI (HL-60(TB) leukemia): 0.656 µM

O=C1c2ccc3c4c(ccc(c24)C(=O)N1CCCNCc1ccccc1)C(=O)N(CCCNCc1ccccc1)C3=O
GI50 (HCC-2998 colon): 0.154 µM | TGI (HCC-2998 colon): 0.303 µM | GI50 (UACC-62 melanoma): 0.18 µM | TGI (UACC-62 melanoma): 0.333 µM | GI50 (CAKI-1 renal): 0.21 µM | TGI (CAKI-1 renal): 0.588 µM | GI50 (CCRF-CEM leukemia): 0.17 µM | TGI (CCRF-CEM leukemia): 4.73 µM | GI50 (DU-145 prostate): 0.156 µM | TGI (DU-145 prostate): 0.297 µM | GI50 (RPMI-8226 leukemia): 0.265 µM | TGI (RPMI-8226 leukemia): 0.939 µM | GI50 (HT29 colon): 0.0421 µM | TGI (HT29 colon): 0.231 µM | GI50 (HL-60(TB) leukemia): 0.163 µM | TGI (HL-60(TB) leukemia): 0.412 µM

Cc1cc(C(=O)N[C@@H](CCC(=O)O)C(=O)O)sc1CC[C@@H]1CNc2nc(N)[nH]c(=O)c2C1
GI50 (HCC-2998 colon): 0.0751 µM | TGI (HCC-2998 colon): > 100 µM | GI50 (UACC-62 melanoma): 0.0378 µM | TGI (UACC-62 melanoma): > 100 µM | GI50 (CAKI-1 renal): < 0.01 µM | TGI (CAKI-1 renal): > 100 µM | GI50 (CCRF-CEM leukemia): 0.0316 µM | TGI (CCRF-CEM leukemia): > 100 µM | GI50 (DU-145 prostate): < 0.0104 µM | TGI (DU-145 prostate): > 100 µM | GI50 (RPMI-8226 leukemia): 0.0648 µM | TGI (RPMI-8226 leukemia): > 100 µM | GI50 (HT29 colon): < 0.0178 µM | TGI (HT29 colon): > 100 µM | GI50 (HL-60(TB) leukemia): < 0.0124 µM | TGI (HL-60(TB) leukemia): > 100 µM

Cc1cc(O)c(C2=NN(c3ccc(S(N)(=O)=O)cc3)C(c3ccccc3O)C2)cc1Cl (configuration not stated)
GI50 (HCC-2998 colon): 2 µM | TGI (HCC-2998 colon): 3.81 µM | GI50 (UACC-62 melanoma): 2.18 µM | TGI (UACC-62 melanoma): 6.59 µM | GI50 (CAKI-1 renal): 1.67 µM | TGI (CAKI-1 renal): 4.12 µM | GI50 (CCRF-CEM leukemia): 3.12 µM | TGI (CCRF-CEM leukemia): > 24.7 µM | GI50 (DU-145 prostate): 2.41 µM | TGI (DU-145 prostate): 4.95 µM | GI50 (RPMI-8226 leukemia): 2.24 µM | TGI (RPMI-8226 leukemia): 10.1 µM | GI50 (HT29 colon): 2.07 µM | TGI (HT29 colon): 4.07 µM | GI50 (HL-60(TB) leukemia): 2.49 µM | TGI (HL-60(TB) leukemia): 6.14 µM

Cc1c2cnccc2c(C)c2c1c1cc(C(=O)O)ccc1n2C
GI50 (HCC-2998 colon): 1.25 µM | TGI (HCC-2998 colon): 4.61 µM | GI50 (UACC-62 melanoma): 0.546 µM | TGI (UACC-62 melanoma): 2.12 µM | GI50 (CAKI-1 renal): 0.616 µM | TGI (CAKI-1 renal): 8.34 µM | GI50 (CCRF-CEM leukemia): 1.06 µM | TGI (CCRF-CEM leukemia): 6.6 µM | GI50 (DU-145 prostate): 1.14 µM | TGI (DU-145 prostate): 5.96 µM | GI50 (RPMI-8226 leukemia): 1.26 µM | TGI (RPMI-8226 leukemia): 5.66 µM | GI50 (HT29 colon): 0.856 µM | TGI (HT29 colon): 6.15 µM | GI50 (HL-60(TB) leukemia): 2.09 µM | TGI (HL-60(TB) leukemia): 6.64 µM

OC(COc1cccc2ccccc12)CN1CCN(c2ccc(Cl)cc2)CC1 (configuration not stated)
GI50 (HCC-2998 colon): > 100 µM | TGI (HCC-2998 colon): > 100 µM | GI50 (UACC-62 melanoma): 23.3 µM | TGI (UACC-62 melanoma): > 100 µM | GI50 (CAKI-1 renal): 5.8 µM | TGI (CAKI-1 renal): 31.4 µM | GI50 (CCRF-CEM leukemia): > 100 µM | TGI (CCRF-CEM leukemia): > 100 µM | GI50 (DU-145 prostate): 38.9 µM | TGI (DU-145 prostate): > 100 µM | GI50 (RPMI-8226 leukemia): 42.9 µM | TGI (RPMI-8226 leukemia): > 100 µM | GI50 (HT29 colon): 16.6 µM | TGI (HT29 colon): 77.6 µM | GI50 (HL-60(TB) leukemia): > 100 µM | TGI (HL-60(TB) leukemia): > 100 µM

COc1cc(-c2nc3ccccc3[nH]2)ccc1OCC(=O)N=Nc1c(O)[nH]c2ccc(Cl)cc12
GI50 (HCC-2998 colon): 1.32 µM | TGI (HCC-2998 colon): 2.8 µM | GI50 (UACC-62 melanoma): 1.72 µM | TGI (UACC-62 melanoma): 3.18 µM | GI50 (CAKI-1 renal): 1.81 µM | TGI (CAKI-1 renal): 3.55 µM | GI50 (CCRF-CEM leukemia): 0.5 µM | TGI (CCRF-CEM leukemia): 3.56 µM | GI50 (DU-145 prostate): 1.68 µM | TGI (DU-145 prostate): 3.43 µM | GI50 (RPMI-8226 leukemia): 1.12 µM | TGI (RPMI-8226 leukemia): 3.76 µM | GI50 (HT29 colon): 1.62 µM | TGI (HT29 colon): 3.48 µM | GI50 (HL-60(TB) leukemia): 1.93 µM | TGI (HL-60(TB) leukemia): 4.42 µM

Cc1ccc(Nc2[nH]c(C(=O)c3ccc(Cl)cc3)c(N)c2C(=S)Nc2ccccc2)nc1
GI50 (HCC-2998 colon): 15.9 µM | TGI (HCC-2998 colon): 33.2 µM | GI50 (UACC-62 melanoma): 15.3 µM | TGI (UACC-62 melanoma): 41 µM | GI50 (CAKI-1 renal): 25.3 µM | TGI (CAKI-1 renal): 76.4 µM | GI50 (CCRF-CEM leukemia): 38.1 µM | TGI (CCRF-CEM leukemia): > 100 µM | GI50 (DU-145 prostate): 31.2 µM | TGI (DU-145 prostate): > 100 µM | GI50 (RPMI-8226 leukemia): 25.5 µM | TGI (RPMI-8226 leukemia): > 100 µM | GI50 (HT29 colon): 57.8 µM | TGI (HT29 colon): > 100 µM | GI50 (HL-60(TB) leukemia): 63.3 µM | TGI (HL-60(TB) leukemia): > 100 µM

O=C(CCc1ccco1)NC1CCN(CC2(c3ccc(Cl)cc3)CCC2)CC1
GI50 (HCC-2998 colon): 6.02 µM | TGI (HCC-2998 colon): 19.7 µM | GI50 (UACC-62 melanoma): 15.9 µM | TGI (UACC-62 melanoma): 30.8 µM | GI50 (CAKI-1 renal): 13.3 µM | TGI (CAKI-1 renal): 27.2 µM | GI50 (CCRF-CEM leukemia): 13.7 µM | TGI (CCRF-CEM leukemia): 49.9 µM | GI50 (DU-145 prostate): 19.1 µM | TGI (DU-145 prostate): 41.3 µM | GI50 (RPMI-8226 leukemia): 13.2 µM | TGI (RPMI-8226 leukemia): 35 µM | GI50 (HT29 colon): 3.44 µM | TGI (HT29 colon): 11.8 µM | GI50 (HL-60(TB) leukemia): 15.5 µM | TGI (HL-60(TB) leukemia): 38.9 µM

COc1cccc2c1nc1cccc(OC)c1[n+]2[O-]
GI50 (HCC-2998 colon): 1.5 µM | TGI (HCC-2998 colon): 6.98 µM | GI50 (UACC-62 melanoma): 3.35 µM | TGI (UACC-62 melanoma): 14.1 µM | GI50 (CAKI-1 renal): 2.44 µM | TGI (CAKI-1 renal): 10.4 µM | GI50 (CCRF-CEM leukemia): 2.35 µM | TGI (CCRF-CEM leukemia): 13.3 µM | GI50 (DU-145 prostate): 4.54 µM | TGI (DU-145 prostate): 16.9 µM | GI50 (RPMI-8226 leukemia): 7.69 µM | TGI (RPMI-8226 leukemia): 31.4 µM | GI50 (HT29 colon): 1.55 µM | TGI (HT29 colon): 13.9 µM | GI50 (HL-60(TB) leukemia): 2.52 µM | TGI (HL-60(TB) leukemia): 5.94 µM

C=CCC(N[C@@H](CO)c1ccccc1)c1ccccn1 (some centres not stated)
GI50 (HCC-2998 colon): > 100 µM | TGI (HCC-2998 colon): > 100 µM | GI50 (UACC-62 melanoma): > 100 µM | TGI (UACC-62 melanoma): > 100 µM | GI50 (CAKI-1 renal): > 100 µM | TGI (CAKI-1 renal): > 100 µM | GI50 (CCRF-CEM leukemia): 74.4 µM | TGI (CCRF-CEM leukemia): > 100 µM | GI50 (DU-145 prostate): > 100 µM | TGI (DU-145 prostate): > 100 µM | GI50 (RPMI-8226 leukemia): 32.7 µM | TGI (RPMI-8226 leukemia): > 100 µM | GI50 (HT29 colon): > 100 µM | TGI (HT29 colon): > 100 µM | GI50 (HL-60(TB) leukemia): 24 µM | TGI (HL-60(TB) leukemia): > 100 µM
